Experimental findings from ChEMBL document CHEMBL4296183, “CO-ADD screening of NIH NCI Natural Product Set III” (2020) are described below.

Test [1] deals with HEK293. Kind of test: cells. Type of test: functional. The settings on record: Homo sapiens, ATCC CRL1573, HEK293; ASSAY_TEST Inhibition of Cell Viability; detection method Resazurin; Fluorescence (ex560/em590); MEDIA DMEM with 10% FBS; plate type 384well; TC; CORNING #3712; time 18 hr.
Test [2] relates to Staphylococcus aureus. Kind of test: microbe, parasite or virus in culture. The settings on record: ATCC 43300, 18 h, ASSAY_TEST Inhibition of Bacterial Growth, detection method Absorption (OD600), MEDIA CAMHB, plate type 384well, NBS, CORNING #3640.
Description: Antibacterial activity against Staphylococcus aureus MRSA ATCC 43300 (CO-ADD:GP_020); MIC in CAMBH media, using NBS plates, by OD(600)
The test system of test [3] is Acinetobacter baumannii. Kind of test: microbe, parasite or virus in culture. The note with it: ATCC 19606, 18 h, ASSAY_TEST Inhibition of Bacterial Growth, detection method Absorption (OD600), MEDIA CAMHB, plate type 384well, NBS, CORNING #3640.
Description: Antibacterial activity against Acinetobacter baumannii ATCC 19606 (CO-ADD:GN_034); MIC in CAMBH media using NBS plates, by OD600
Test [4] has as its system Pseudomonas aeruginosa. Kind of test: microbe, parasite or virus in culture. The note with it: ATCC 27853, 18 h, ASSAY_TEST Inhibition of Bacterial Growth, detection method Absorption (OD600), MEDIA CAMHB, plate type 384well, NBS, CORNING #3640.
Description: Antibacterial activity against Pseudomonas aeruginosa ATCC 27853 (CO-ADD:GN_042); MIC in CAMBH media using NBS plates, by OD(600)
The test system of test [5] is Escherichia coli. Kind of test: microbe, parasite or virus in culture. The settings on record: ATCC 25922, 18 h, ASSAY_TEST Inhibition of Bacterial Growth, detection method Absorption (OD600), MEDIA CAMHB, plate type 384well, NBS, CORNING #3640.
Description: Antibacterial activity against Escherichia coli ATCC 25922 (CO-ADD:GN_001); MIC in CAMBH media using NBS plates, by OD(600)
For test [6], the system named is Klebsiella pneumoniae. Kind of test: microbe, parasite or virus in culture. The note with it: ATCC 700603, 18 h, ASSAY_TEST Inhibition of Bacterial Growth, detection method Absorption (OD600), MEDIA CAMHB, plate type 384well, NBS, CORNING #3640.
Description: Antibacterial activity against Klebsiella pneumoniae MDR ATCC 70063 (CO-ADD:GN_003); MIC in CAMBH media using NBS plates, by OD(600)
Test [7] deals with Candida albicans. Kind of test: microbe, parasite or virus in culture. The settings on record: ATCC 90028, ASSAY_TEST Inhibition of Fungal Growth, detection method Absorption (OD530), plate type 384well, NBS, CORNING #3640.
Description: Antifungal activity against Candida albicans ATCC 90028 (CO-ADD:FG_001); MIC in YNB media using NBS plates, by OD630
For test [8], the system named is Cryptococcus neoformans.
Description: Antifungal activity against Cryptococcus neoformans H99 ATCC 208821 (CO-ADD:FG_002); MIC in YNB media using NBS plates, by Resazurin OD(600-570)

Converted amounts (≈) assume the structure as drawn. Some results are limits rather than exact numbers.

Turning to `N#Cc1cn(C2OC(CO)C(O)C2O)c2ncnc(N)c12` (stereo not drawn), in test [1], the CC50 (in general, the concentration at which the toxic effect on the cells reaches its halfway point) was over 10 µM. Further, the MIC was over 10 µM in test [2]; over 10 µM in test [3]; over 10 µM in test [4]; over 10 µM in test [5]; over 10 µM in test [6]; 0.312 µM (≈ 0.091 µg/mL) in test [7]. Moreover, in test [8], the MIC is over 10 µM.

The compound `O=c1ccc2nc3ccc(O)cc3oc-2c1` had a CC50 in test [1] of over 10 µM. Also, the MIC in test [2], in test [3], in test [4], in test [5], in test [6] and in test [7] was over 10 µM each time. Further, the MIC in test [8] is over 10 µM.

The compound `COc1cccc2c1C(=O)c1c(O)c3c(c(O)c1C2=O)C[C@@](O)(C(C)=O)C[C@@H]3OC1CC(N)C(O)C(C)O1` (stereo partly drawn) gave a CC50 in test [1] of 0.613 µM. Moreover, the MIC in test [2] is 5 µM (≈ 2.64 µg/mL); in test [3] it was over 10 µM; in test [4] it was over 10 µM; in test [5], over 10 µM; in test [6] it was over 10 µM; in test [7] it was over 10 µM. Moreover, the MIC in test [8] is over 10 µM.

In turn, `CC1Oc2cc3c(-c4c(O)cc(O)c5c(O)c6c(cc45)OC(C)C(C)C6=O)c(O)cc(O)c3c(O)c2C(=O)C1C` (stereo not drawn) displayed a CC50 in test [1] of 5.78 µM. For the same compound, the MIC in test [2] was 5 µM (≈ 2.73 µg/mL); in test [3], over 10 µM; in test [4] it was over 10 µM; in test [5], over 10 µM; in test [6] it was over 10 µM; in test [7] it was over 10 µM. The MIC in test [8] is over 10 µM.

With `COC1=C2C[C@@H](C)C[C@@H](OC)[C@@H](O)[C@H](C)/C=C(\C)[C@@H](OC(N)=O)[C@H](OC)/C=C\C=C(/C)C(=O)NC(=CC1=O)C2=O`, in test [1], the CC50 was over 10 µM. The MIC in test [2], in test [3], in test [4], in test [5], in test [6] and in test [7] was over 10 µM each time. The MIC in test [8] was over 10 µM.

`CC[C@H](C)c1occ2c(O)c(C(=O)O)c(=O)cc-2c1C` returned a cytotoxic concentration (CC50) in test [1] of over 10 µM. The MIC in test [2], in test [3], in test [4], in test [5], in test [6] and in test [7] was over 10 µM throughout. This compound also came in with an MIC in test [8] of over 10 µM.

In test [1], `C=C(NC(=O)C(=C)NC(=O)c1csc(C2=NC3c4csc(n4)C4NC(=O)c5csc(n5)C(C(C)(O)C(C)O)NC(=O)C5CSC(=N5)/C(=C/C)NC(=O)C(C(C)O)NC(=O)c5csc(n5)C3(CC2)NC(=O)C(C)NC(=O)C(=C)NC(=O)C(=C)NC(=O)C(C(C)C)NC2C=Cc3c(C(C)O)cc(nc3C2O)C(=O)OC4C)n1)C(N)=O` (stereo not drawn) came in with a CC50 of over 10 µM. In addition, the MIC in test [2] was at most 0.0781 µM; in test [3], over 10 µM; in test [4] it was over 10 µM; in test [5] it was over 10 µM; in test [6], over 10 µM; in test [7], over 10 µM. Also, the MIC in test [8] was over 10 µM.

For `COc1cc(C)cc2c(-c3c(O)cc(O)c4c3C[C@H](C)N[C@H]4C)cc(-c3cc(-c4c(O)cc(O)c5c4C[C@H](C)N[C@H]5C)c4cc(C)cc(OC)c4c3O)c(O)c12`, in test [1], the CC50 was over 10 µM. Further, the MIC in test [2], in test [3], in test [4], in test [5], in test [6] and in test [7] was over 10 µM in each case. This compound also displayed an MIC in test [8] of over 10 µM.

In test [1], `CC1COC2C3=C(C(=O)C=CC3=O)C3OC(=O)C4CC5CCC1C5C2C43` (stereo not drawn) returned a CC50 of 1.18 µM.

For `CC1/C=C/C=C/CC/C=C/C=C/C=C/C=C/C(OC2OC(C)C(O)C(N)C2O)CC2OC(CC(O)C(O)CCC(O)CC(O)CC(O)CC(=O)OC(C)C(C)C1O)CC(O)C2C(=O)O` (stereo not drawn), the CC50 in test [1] is over 10 µM. Further, the MIC in test [2] is over 10 µM; in test [3] it was over 10 µM; in test [4], over 10 µM; in test [5] it was over 10 µM; in test [6], over 10 µM; in test [7], 5 µM (≈ 4.55 µg/mL). The compound also showed an MIC in test [8] of 5 µM (≈ 4.55 µg/mL).

Turning to `CC(=O)C(=O)NC1/C=C(C)\C=C/C(O)C/C=C(C)\C=C/C(O)CC2OC(=O)C1(C)C(=O)C2C` (stereo not drawn), the CC50 in test [1] was over 10 µM. Moreover, the MIC in test [2] is 10 µM (≈ 4.6 µg/mL); in test [3] it was over 10 µM; in test [4], over 10 µM; in test [5], over 10 µM; in test [6], over 10 µM; in test [7], over 10 µM. For the same compound, in test [8], the MIC was over 10 µM.

Take `CO[C@H](/C(C)=C/C=C/C(C)=C/c1coc(C)n1)[C@H](C)[C@H]1C[C@@H](O)[C@@]2(C)O[C@H]2/C=C/[C@@H](C)[C@@H]2C[C@@H](CC(=O)O2)C[C@H]2O[C@@H]2C(=O)O1`: the CC50 in test [1] was over 10 µM. For the same compound, the MIC in test [2], in test [3], in test [4], in test [5], in test [6] and in test [7] was over 10 µM each time. This compound also returned an MIC in test [8] of 1.25 µM (≈ 0.782 µg/mL).

Compound `COc1cc2oc3cc(=O)cc4oc(-c5ccccc5)cc(c2c2c1CCC(c1ccccc1)O2)c43` (stereo not drawn) gave a CC50 in test [1] of over 10 µM. The MIC in test [2], in test [3], in test [4], in test [5], in test [6] and in test [7] was over 10 µM each time. This compound also had an MIC in test [8] of over 10 µM.

With `COC1CC(CC2CCC(C)C(C(C)C(=O)O)O2)OC2(OC(C)(C3CCC(C)(C4OC(C5OC(O)(CO)C(C)CC5C)CC4C)O3)CC2C)C1C` (stereo not drawn), the 50% cytotoxic concentration (CC50) in test [1] was over 10 µM. Moreover, the MIC in test [2] was 0.156 µM (≈ 0.113 µg/mL); in test [3] it was over 10 µM; in test [4] it was over 10 µM; in test [5], over 10 µM; in test [6], over 10 µM; in test [7], 10 µM (≈ 7.25 µg/mL). In test [8], the MIC was over 10 µM.

On to `N#C[C@H](OC1OC(COC2OC(CO)C(O)C(O)C2O)C(O)C(O)C1O)c1ccccc1` (stereo partly drawn), for which the CC50 in test [1] was over 10 µM. The MIC in test [2], in test [3], in test [4], in test [5], in test [6] and in test [7] was over 10 µM each time. For the same compound, the MIC in test [8] was over 10 µM.

On to `CSC1SCC2C(=O)N(C)C(C(C)C)C(=O)OCC(NC(=O)c3cnc4ccccc4n3)C(=O)NC(C)C(=O)N(C)C1C(=O)N(C)C(C(C)C)C(=O)OCC(NC(=O)c1cnc3ccccc3n1)C(=O)NC(C)C(=O)N2C` (stereo not drawn), for which, in test [1], the CC50 is over 10 µM. Besides, the MIC is at most 0.0781 µM in test [2]; over 10 µM in test [3]; 1.25 µM (≈ 1.38 µg/mL) in test [4]; 2.5 µM (≈ 2.75 µg/mL) in test [5]; over 10 µM in test [6]; over 10 µM in test [7]. Further, the MIC in test [8] stood at 2.5 µM (≈ 2.75 µg/mL).

Compound `COC1/C=C/O[C@@]2(C)Oc3c(C)c(O)c4c(O)c(cc(O)c4c3C2=O)NC(=O)/C(C)=C\C=C\[C@H](C)C(O)[C@@H](C)[C@@H](O)[C@@H](C)[C@H](OC(C)=O)[C@@H]1C` (stereo partly drawn) had a CC50 in test [1] of over 10 µM. Moreover, the MIC in test [2] is at most 0.0781 µM; in test [3], over 10 µM; in test [4], over 10 µM; in test [5] it was over 10 µM; in test [6], over 10 µM; in test [7], over 10 µM. The compound also registered an MIC in test [8] of over 10 µM.

The compound `CC1OC(=O)C(C(C)C)NC(=O)C(C(C)C)OC(=O)C(C(C)C)NC(=O)C(C)OC(=O)C(C(C)C)NC(=O)C(C(C)C)OC(=O)C(C(C)C)NC(=O)C(C)OC(=O)C(C(C)C)NC(=O)C(C(C)C)OC(=O)C(C(C)C)NC1=O` (stereo not drawn) showed a CC50 in test [1] of over 10 µM. Moreover, the MIC in test [2] is over 10 µM; in test [3] it was over 10 µM; in test [4], over 10 µM; in test [5], over 10 µM; in test [6], over 10 µM; in test [7] it was 0.625 µM (≈ 0.695 µg/mL). The MIC in test [8] is over 10 µM.

Consider `CCC(C(=O)C(C)C(O)C(C)CCc1ccc(C)c(O)c1C(=O)O)C1OC(CC)(C2CCC(O)(CC)C(C)O2)CC1C` (stereo not drawn), for which the CC50 in test [1] was over 10 µM. The MIC in test [2] is 0.312 µM (≈ 0.185 µg/mL); in test [3], over 10 µM; in test [4], over 10 µM; in test [5], over 10 µM; in test [6] it was over 10 µM; in test [7] it was over 10 µM. In addition, the MIC in test [8] was over 10 µM.

Compound `C[C@H](N)C(=O)N[C@@H]1[C@H]2C(=C(O)C[C@@H](O)[C@@H]2O)C(=O)O[C@]1(C)C(Cl)Cl` [BACTOBOLIN] had a CC50 in test [1] of 0.396 µM. The MIC in test [2] is 1.25 µM (≈ 0.479 µg/mL); in test [3] it was over 10 µM; in test [4], over 10 µM; in test [5], 5 µM (≈ 1.92 µg/mL); in test [6], over 10 µM; in test [7], over 10 µM. The MIC in test [8] is over 10 µM.
